Key:
[1] = Liver microsomal stability in rat liver microsomes; type: in vitro ADME; conditions: 0.5 mg protein/mL, 1 μM compound, 37° C.
Experimental: Experimental Example 2: Evaluation of Liver Microsomal Stability of Compounds Disclosed Herein
Test samples: the compounds disclosed herein and the compound I-8 of international patent application WO2017019723A1 (prepared by referring to the examples for synthesis in WO2017019723A1) having the following structural formula: […]
An appropriate amount of the compound was precisely weighed out and dissolved in DMSO to prepare a 5.0 mM stock solution. The 5.0 mM stock solution was diluted to 1.0 mM with DMSO, and then diluted with water to 10 μM compound working solution for later use (DMSO content in the reaction system: 0.1% v/v).
• (1) The liver microsomes (20 mg protein/mL) were taken out from a −80° C. refrigerator, pre-incubated on a 37° C. water bath thermostatic oscillator for 3 min, and thawed for use. • (2) A mixed solution of the incubation system (without compound and D-NADPH) was prepared according to “composition of the experimental incubation system” described above, and pre-incubated on a 37° C. water bath thermostatic oscillator for 2 min. • (3) Control group (without D-NADPH): 30 μL of water and 30 μL of compound working solution (10 μM) were added to 240 μL of the mixed solution of the incubation system in step (2), and the mixture was vortexed for 30 s and mixed well; the total volume of the mixture was 300 μL; the sample was duplicated. The mixture was placed on a 37° C. water bath thermostatic oscillator for incubation, and timing was started; the sampling was conducted at 0 min and 60 min. • (4) Sample group: 70 μL of […] solution (10 mM) and 70 μL of compound working solution (10 μM) were added to 560 μL of the mixed solution in step (2), and the total volume of the mixture was 700 μL; the mixture was vortexed for 30 s and mixed well; the sample was duplicated. The mixture was placed on a 37° C. water bath thermostatic oscillator for incubation, and timing was started; the sampling was conducted at 0 min, 5 min, 10 min, 20 min, 30 min and 60 min. • (5) The mixture was vortexed for 3 min, and centrifuged at 4000 rpm for 10 min. • (6) 50 μL of the supernatant was taken and added to 150 μL of water, and the resulting mixture was vortexed and mixed well before LC/MS/MS analysis.
The half-life (t1/2) and clearance (Cl) were calculated using the following first-order kinetic formula:
Vd=1/protein content in liver microsomes
Note: k denotes the slope of the logarithm of the remaining amount of a compound vs. time, Vd denotes apparent volume of distribution, and C0 denotes compound concentration at 0 h.
Experiment on Stability of the Compounds Disclosed Herein in Rat Liver Microsomes

PDE9A2 enzyme = target: T1, PDE9A2 enzyme (Homo sapiens, UniProt O76083); experiment: PDE9 enzymatic evaluation; type: biochemical; conditions: fluorescence reading 480 nm/535 nm
T1 construct: purchased BPS 60090
Experimental: Experimental Example 1: PDE9 Enzymatic Evaluation
Test samples: the compounds disclosed herein, prepared according to the corresponding examples of the present invention.
Preparation of the compounds: Compounds were formulated into 10 mM compound stock solution in DMSO for long term storage. The obtained compound stock solution was 100-fold diluted with DMSO to give 100 μM compound mother liquor, which was 3-fold diluted with DMSO to give 8-10 concentration gradients of diluted compound mother liquor (100×).
Incubation with compound: Diluted compound mother liquor was pipetted into a 384-well plate using an ultramicro-liquid pipetting system (Echo); 200 nL of the diluted compound mother liquor and 10 μL of PDE9A2 enzyme solution were added to each compound well; after centrifugation at 1000 rpm for 1 min, the mixtures were incubated at room temperature for 15 min. Subsequently, 10 μL of the substrate mixture was added, and after centrifugation at 1000 rpm for 1 min, the resulting mixture was incubated at room temperature with oscillating for 30 min. Finally, stop solution was added to end the reaction, and the resulting reaction system was incubated at room temperature with oscillating for 60 min. In the maximum reading well (Max), the compound was replaced by solvent; in the minimum reading well (Min), the compound and the enzyme solution were replaced by solvent.
Detection: the fluorescence readings (F) at 480 nm/535 nm were detected using a microplate reader.
Calculation: The inhibition rate was calculated according to the following formula and IC50 was fitted using GraphPad Prism 5.0: […]

human PDE9 [2] = target: T2, human PDE9 (Homo sapiens, UniProt O76083); conditions: background statement; cited from earlier work
human PDE9 [3] = target: T2, human PDE9; conditions: substrate of PDE9, background statement; read-out: binding constant (Km); cited from earlier work

T2 sequence (O76083 whole entry): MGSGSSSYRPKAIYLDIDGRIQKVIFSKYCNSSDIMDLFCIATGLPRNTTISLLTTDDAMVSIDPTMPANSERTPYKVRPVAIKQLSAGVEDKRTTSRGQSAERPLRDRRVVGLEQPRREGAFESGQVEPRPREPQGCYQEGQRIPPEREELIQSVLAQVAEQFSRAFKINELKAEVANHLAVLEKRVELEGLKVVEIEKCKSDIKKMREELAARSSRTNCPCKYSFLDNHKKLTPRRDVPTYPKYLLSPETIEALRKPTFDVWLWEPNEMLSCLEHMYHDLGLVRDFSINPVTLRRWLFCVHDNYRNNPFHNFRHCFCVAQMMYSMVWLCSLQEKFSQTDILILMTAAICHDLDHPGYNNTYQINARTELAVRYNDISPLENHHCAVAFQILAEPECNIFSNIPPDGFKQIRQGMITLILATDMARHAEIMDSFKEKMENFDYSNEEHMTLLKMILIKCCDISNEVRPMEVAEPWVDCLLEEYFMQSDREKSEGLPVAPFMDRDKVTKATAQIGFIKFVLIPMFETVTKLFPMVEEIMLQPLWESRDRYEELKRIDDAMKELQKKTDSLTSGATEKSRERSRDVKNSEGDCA
T1 sequence (O76083 1-533 isoform O76083-2): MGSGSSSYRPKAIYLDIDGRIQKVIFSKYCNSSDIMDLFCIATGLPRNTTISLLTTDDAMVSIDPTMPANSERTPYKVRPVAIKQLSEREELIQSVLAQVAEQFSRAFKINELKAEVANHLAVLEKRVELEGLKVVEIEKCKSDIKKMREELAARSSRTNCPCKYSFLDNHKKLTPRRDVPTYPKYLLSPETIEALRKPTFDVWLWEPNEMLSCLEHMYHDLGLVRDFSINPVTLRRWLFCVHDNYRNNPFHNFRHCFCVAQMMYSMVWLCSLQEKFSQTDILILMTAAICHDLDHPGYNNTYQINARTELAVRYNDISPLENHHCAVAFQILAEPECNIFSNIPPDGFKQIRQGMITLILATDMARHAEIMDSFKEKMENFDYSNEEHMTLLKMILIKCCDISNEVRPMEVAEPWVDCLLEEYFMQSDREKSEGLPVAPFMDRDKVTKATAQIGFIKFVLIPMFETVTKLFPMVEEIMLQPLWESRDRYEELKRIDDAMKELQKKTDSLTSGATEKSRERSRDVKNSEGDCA

**Q.** Which half-life at 1 μM [1] does the source give for `COC1(C)CCN(c2c(C#N)c(=O)[nH]c3ccc(C(C)(C)O)cc23)CC1` [Compound 109, 6-(2-hydroxypropan-2-yl)-4-(4-methoxy-4-methylpiperidin-1-yl)-2-oxo-1,2-dihydroquinoline-3-carbonitrile] here?
**A.** 7.7 h

**Q.** What about the microsomal CLint at 1 μM [1] of the same compound?
**A.** 3 µL/min/mg

**Q.** And the IC50 (PDE9A2 enzyme)?
**A.** 15 nM

**Q.** For `COC1(C)CCN(c2c(C#N)c(=O)[nH]c3ccc(C)cc23)CC1` [Compound 158, 4-(4-methoxy-4-methylpiperidin-1-yl)-6-methyl-2-oxo-1,2-dihydroquinoline-3-carbonitrile], which IC50 (PDE9A2 enzyme) is on record?
**A.** 12 nM

**Q.** Which “inhibitory activity against PDE9” value (human PDE9 [2]) does the source give for `COc1ccc(C2CNC(=O)C2)cc1OC1CCCC1` (centres unmarked) [rolipram] here?
**A.** no inhibitory activity or low inhibitory activity

**Q.** Which results are given for `COCCOc1ccc2[nH]c(=O)c(C#N)c(N3CCC(C)(OC)CC3)c2c1` [Compound 145, 4-(4-methoxy-4-methylpiperidin-1-yl)-6-(2-methoxyethoxy)-2-oxo-1,2-dihydroquinoline-3-carbonitrile]?
**A.** half-life at 1 μM [1]: 2.13 h; microsomal CLint at 1 μM [1]: 10.8 µL/min/mg; IC50 (PDE9A2 enzyme): 12 nM

**Q.** Which “inhibitory activity against PDE9” value (human PDE9 [2]) does the source give for `CC(=O)Nc1ccc(-c2c[nH]c(=O)cn2)cc1` [SKF94120] here?
**A.** no inhibitory activity or low inhibitory activity

**Q.** For `COC1(C)CCN(c2c(C#N)c(=O)[nH]c3ccc(C(O)C4CC4)cc23)CC1` (centres unmarked) [Compound 130, 6-(cyclopropyl(hydroxy)methyl)-4-(4-methoxy-4-methylpiperidin-1-yl)-2-oxo-1,2-dihydroquinoline-3-carbonitrile], which half-life at 1 μM [1] is on record?
**A.** 2.82 h

**Q.** And the microsomal CLint at 1 μM [1]?
**A.** 8.2 µL/min/mg

**Q.** What about the IC50 (PDE9A2 enzyme) of the same compound?
**A.** 2 nM

**Q.** With `CC(C)Cn1c(=O)n(C)c(=O)c2[nH]cnc21` [IBMX] as the compound, how does the “inhibitory activity against PDE9” value (human PDE9 [2]) read?
**A.** no inhibitory activity or low inhibitory activity

**Q.** For `N#Cc1c(N2CCCCCC2)c2ccccc2[nH]c1=O` [Compound I-8, reference compound], which half-life at 1 μM [1] is on record?
**A.** 0.792 h

**Q.** And the microsomal CLint at 1 μM [1]?
**A.** 29.2 µL/min/mg

**Q.** For `COC1(C)CCN(c2c(C#N)c(=O)[nH]c3ccc(C(C)C)cc23)CC1` [Compound 179, 6-isopropyl-4-(4-methoxy-4-methylpiperidin-1-yl)-2-oxo-1,2-dihydroquinoline-3-carbonitrile], which IC50 (PDE9A2 enzyme) is on record?
**A.** 18 nM

**Q.** Which results are given for `CNC(=O)c1ccc2[nH]c(=O)c(C#N)c(N3CCC4(CC3)CC4)c2c1` [Compound 96, 3-cyano-N-methyl-2-oxo-4-(6-azaspiro[2.5]octan-6-yl)-1,2-dihydroquinoline-6-carboxamide]?
**A.** half-life at 1 μM [1]: 3.22 h; microsomal CLint at 1 μM [1]: 7.2 µL/min/mg; IC50 (PDE9A2 enzyme): 5 nM

**Q.** For `COC1(C)CCN(c2c(C#N)c(=O)[nH]c3ccc(Br)cc23)CC1` [Compound 180, 6-bromo-4-(4-methoxy-4-methylpiperidin-1-yl)-2-oxo-1,2-dihydroquinoline-3-carbonitrile], which half-life at 1 μM [1] is on record?
**A.** 0.955 h

**Q.** And the microsomal CLint at 1 μM [1]?
**A.** 24.2 µL/min/mg

**Q.** What about the IC50 (PDE9A2 enzyme) of the same compound?
**A.** 8 nM

**Q.** For `CCc1ccc2[nH]c(=O)c(C#N)c(N3CCC(C)(OC)CC3)c2c1` [Compound 107, 6-ethyl-4-(4-methoxy-4-methylpiperidin-1-yl)-2-oxo-1,2-dihydroquinoline-3-carbonitrile], which IC50 (PDE9A2 enzyme) is on record?
**A.** 8 nM

**Q.** With `OCCN(CCO)c1nc(N2CCCCC2)c2nc(N(CCO)CCO)nc(N3CCCCC3)c2n1` [dipyridamole] as the compound, how does the “inhibitory activity against PDE9” value (human PDE9 [2]) read?
**A.** no inhibitory activity or low inhibitory activity

**Q.** For `Nc1nc2c(ncn2[C@@H]2O[C@@H]3COP(=O)(O)O[C@H]3[C@H]2O)c(=O)[nH]1` [cGMP, cyclic guanosine monophosphate], which Km (human PDE9 [3]) is on record?
**A.** 0.17 µM

**Q.** For `CCOC(=O)C1=C[C@]2(CC)CCCN3CCc4c(n1c1ccccc41)[C@@H]32` [vinpocetine], which “inhibitory activity against PDE9” value (human PDE9 [2]) is on record?
**A.** no inhibitory activity or low inhibitory activity

From patent US20220081409A1, “PDE9 INHIBITOR AND USE THEREOF” (NANJING TRANSTHERA BIOSCIENCES CO., LTD., priority 2019, published 2022)
